Where “and” joins values, the source holds several entries; their conditions need not be identical. Equal values may be shown once.
How the values were obtained:
[1] = test system: DRB3; assay: HLA class II peptide-binding assay (competitive ELISA); parameters: species or system human
[2] = test system: DRB4; assay: as above; parameters: species or system human
[3] = test system: DRB5; assay: as above; parameters: species or system human
[4] = test system: CD25-depleted PBMCs (CD4+ T cells); assay: Generation of peptide-specific CD4+ T cell lines with the split-well method (frequency of specific TCLs); type: cell-based, human; settings: for estimated average precursor frequency of peptide-specific T cells: estimated from TCL frequencies, assuming 30% CD4+ T cells in PBMCs; for positive specific TCLs out of 30 replicate wells per subject: peptides at 2 µM, 10^5 PBMCs per well, mean±SEM, SEM
Procedure: After isolating peripheral-blood mononuclear cells (PBMCs) by Ficoll-Paque Plus density gradient centrifugation (GE Healthcare Biosciences, Uppsala, Sweden), CD4^+CD25high regulatory T cells were depleted with anti-CD25-magnetic beads (Miltenyi Biotec, Bergisch Gladbach, Germany), to enhance the induction of both autoreactive and allergen-reactive CD4^+ T cell responses, as previously described, [34].The CD25-depleted PBMCs were seeded in 96-well U-bottomed plates (Corning Incorporated, Corning, USA; 10^5 PBMCs per well) in the presence of pooled Can f 1 or TL peptides (each peptide at 2 µM, 30 wells per a peptide pool), or the HA peptide (30 wells) in a 150 µl volume of RPMI 1640 culture medium supplemented with 2 mM L-glutamine, 20 µM 2-mercaptoethanol, 1 mM sodium pyruvate, nonessential amino acids, 100 IU/ml penicillin, 100 µg/ml streptomycin, 10 mM HEPES (all from Lonza, Verviers, Belgium) and 5% inactivated human AB serum (Sigma-Aldrich, St. Louis, MO). On day 5, 50 µl of fresh medium supplemented with 10 IU/ml of IL-2 (Strathmann Biotech, Hannover, Germany) was added to the cultures. On day 7, half of the culture medium was replaced without IL-2. On day 10, half of the cells in the cultures were split into daughter plates for testing specificity by stimulating the cells with or without the pooled peptides (each peptide at 2 µM) together with autologous γ-irradiated (3000 rad) PBMCs (5×10^5) as antigen-presenting cells. After an incubation of 72 h, [3H]thymidine was added (1 µCi per well; GE Healthcare, Little Chalfont, UK), and after an additional 16 h, the cells were harvested onto glass fiber filters on day 14 (Wallac, Turku, Finland). Radioactivity was measured by scintillation counting (Wallac Micro Beta 1540) and the results were expressed as counts per minute (CPM). The stimulation indices (SI; CPM in the presence of antigen divided by CPM in the absence of antigen) and CPM differences between stimulated and unstimulated wells (ΔCPM) were determined. On the same day, positive cultures (ΔCPM>2000 and SI>2) were restimulated in 48-well plates with autologous γ-irradiated PBMCs (10^6/well), 2 µM of the peptides and 25 IU/ml of IL-2. On day 28, the established TCLs were propagated once more with peptides, IL-2 and PBMCs. After stimulations, half of the culture medium was replaced with fresh medium supplemented with IL-2 every 2–3 days. The peptide specificity of TCLs was defined as described below.
T cell proliferation assays were set in duplicates in 96-well U-bottomed plates with 2.5×10^4 cultured T cells, 5×10^4 autologous γ-irradiated (3000 rad) PBMCs as APCs, and antigens as indicated. In order to determine the epitope specificity of the established TCLs induced with peptide pools, the T cell lines were tested with each of the three individual peptides in the pool at 10 µM on day 28. Proliferation was measured by radionuclide uptake (see above). […] On day 42, peptide-specific TCLs were tested with individual Can f 1 peptides, as well as their TL homologues, at several concentrations up to 10 µM. The functional T cell receptor (TCR) avidities of the TCLs for a peptide were assessed by determining effective concentration 50 (EC50) values (i.e., the concentration of a peptide needed to induce a half-maximal proliferative response) from the dose-response curves of individual TCLs.

[5] = test system: peptide-specific CD4+ T cell lines; assay: Proliferation assay, functional TCR avidity (EC50) of peptide-specific TCLs; type: cell-based, human

Sequence: PKYVKQNTLKLAT [HA, influenza hemagglutinin (HA) peptide (amino acids 306–318), viral control peptide, reference compound]
- relative binding ratio (IC50 of the test peptide divided by IC50 of the reference peptide) [1]: > 167
- relative binding ratio (IC50 of the test peptide divided by IC50 of the reference peptide) [2]: > 1 179
- relative binding ratio (IC50 of the test peptide divided by IC50 of the reference peptide) [3]: 1
- estimated average precursor frequency of peptide-specific T cells ([4]; allergic subjects): 4.2 per 10^6 CD4^+ T cells
- positive specific TCLs out of 30 replicate wells per subject ([4]; allergic subjects): 12.68±10.98%
- estimated average precursor frequency of peptide-specific T cells ([4]; nonallergic subjects): 2.9 per 10^6 CD4^+ T cells
- positive specific TCLs out of 30 replicate wells per subject ([4]; nonallergic subjects): 8.60±13.37%
- percentage of high-avidity (EC50<0.1 µM) TCLs [5]: 25.0% and 22.6%

Source: paper PMC4038554, “Human CD4^+ T Cell Responses to the Dog Major Allergen Can f 1 and Its Human Homologue Tear Lipocalin Resemble Each Other” (PLoS ONE, 2014)
